Patent US9771375B2, “Indazole compounds useful as ketohexokinase inhibitors” (JANSSEN PHARMACEUTICA NV, priority 2010, dated 2017)
Structures can show the parent of a compound that is named as a salt.

Molecular target: KHK (Homo sapiens (Human), UniProt P50053)
Assay: In Vitro KHK Enzyme Assay (HTMS detection of fructose-1-P)
Format: biochemical
Conditions: 100 μM ATP, 2 nM KHK, 60 min at 25° C., 12-point dose-response
Method: An enzymatic assay was developed to measure KHK-mediated conversion of D-fructose to Fructose-1-P (F-1-P) using High Throughput Mass Spectroscopy (HTMS) as a means of product detection. This assay served as a primary screen to evaluate the ability to inhibit KHK enzyme activity and it has been adapted to high throughput mass spectrometry (HTMS, BioTrove RapidFire™) format for higher throughput.
The compounds to be tested were dosed in 12-points concentration from 511 μM to 0.5 μM. […] The assay was carried out in 384-well plate format.

KHK, sequence (P50053 whole entry): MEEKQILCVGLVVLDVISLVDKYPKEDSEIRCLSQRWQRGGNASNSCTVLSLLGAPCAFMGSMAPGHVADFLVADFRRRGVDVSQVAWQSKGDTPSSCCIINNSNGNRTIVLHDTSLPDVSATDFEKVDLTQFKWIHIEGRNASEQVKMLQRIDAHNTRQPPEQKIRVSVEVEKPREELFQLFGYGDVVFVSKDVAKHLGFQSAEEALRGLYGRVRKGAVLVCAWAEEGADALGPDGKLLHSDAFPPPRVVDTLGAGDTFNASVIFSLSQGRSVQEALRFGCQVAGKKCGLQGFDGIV

For `Cc1nn(-c2ccccc2)c2cc(N3CCC(N4CCNCC4)CC3)ccc12` [Compound 57, 3-Methyl-1-phenyl-6-(4-piperazin-1-yl-piperidin-1-yl)-1H-indazole hydrochloride], the IC50 was 3.2 µM.
